Assay results taken from PMC12340637, “Transport of Small Aliphatic Amines by Polyspecific Solute Carriers: Deciphering Structure–Function Relationships” (ACS Pharmacology & Translational Science, 2025).
Marks after values point to notes of the source that are not given here.

What was measured:
OCT3 (SLC22A3) = biological target: T1, OCT3 (SLC22A3) (Homo sapiens, UniProt O75751); assay: Cellular uptake into OCT3-overexpressing HEK293 cells vs EV control cells (HPLC-MS/MS); details: for uptake ratio OCT3 (transporter-overexpressing cells over EV control cells): mean (±SD, N): 2 min, HEK293
T1 sequence (O75751 1-556): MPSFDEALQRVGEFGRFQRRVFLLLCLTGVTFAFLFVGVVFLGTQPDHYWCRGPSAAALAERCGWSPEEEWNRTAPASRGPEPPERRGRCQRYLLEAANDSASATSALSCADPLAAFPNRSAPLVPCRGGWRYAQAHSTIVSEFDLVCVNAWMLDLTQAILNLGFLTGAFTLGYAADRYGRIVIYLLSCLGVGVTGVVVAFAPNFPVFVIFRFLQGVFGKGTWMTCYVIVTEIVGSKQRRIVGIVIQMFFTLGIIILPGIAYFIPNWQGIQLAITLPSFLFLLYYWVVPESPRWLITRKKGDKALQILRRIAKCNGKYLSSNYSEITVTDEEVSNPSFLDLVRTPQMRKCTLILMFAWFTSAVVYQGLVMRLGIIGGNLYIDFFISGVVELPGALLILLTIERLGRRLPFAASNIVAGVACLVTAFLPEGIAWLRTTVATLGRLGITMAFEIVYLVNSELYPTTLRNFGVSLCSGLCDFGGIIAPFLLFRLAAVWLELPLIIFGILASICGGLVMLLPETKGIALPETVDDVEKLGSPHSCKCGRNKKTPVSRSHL

OCT2 (SLC22A2) [1] = biological target: T2, OCT2 (SLC22A2) (Homo sapiens, UniProt O15244); assay: Cellular uptake into OCT2-overexpressing HEK293 cells vs EV control cells (HPLC-MS/MS); details: for uptake ratio OCT2 (transporter-overexpressing cells over EV control cells): mean (±SD, N): 2 min, HEK293; for K m (±SEM) / v max (±SEM): OCT2, net uptake, Michaelis–Menten
T2 sequence (O15244 1-555): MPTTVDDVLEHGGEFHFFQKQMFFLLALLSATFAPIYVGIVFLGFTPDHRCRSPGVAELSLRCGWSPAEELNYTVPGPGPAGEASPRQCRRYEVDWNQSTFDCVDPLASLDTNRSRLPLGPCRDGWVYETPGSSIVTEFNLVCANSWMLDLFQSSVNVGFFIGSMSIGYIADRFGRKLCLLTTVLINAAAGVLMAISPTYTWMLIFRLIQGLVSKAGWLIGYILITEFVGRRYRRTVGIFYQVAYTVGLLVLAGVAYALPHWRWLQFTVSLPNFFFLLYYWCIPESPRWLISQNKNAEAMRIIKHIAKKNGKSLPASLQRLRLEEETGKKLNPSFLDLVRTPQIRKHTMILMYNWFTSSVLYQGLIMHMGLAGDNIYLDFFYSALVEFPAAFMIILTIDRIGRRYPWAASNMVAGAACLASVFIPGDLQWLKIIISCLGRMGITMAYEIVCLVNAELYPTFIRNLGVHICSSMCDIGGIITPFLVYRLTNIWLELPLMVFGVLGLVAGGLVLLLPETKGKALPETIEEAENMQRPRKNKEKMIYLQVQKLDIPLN

MATE2-K (SLC47A2) = MATE2-K (SLC47A2) (Homo sapiens, UniProt Q86VL8); assay: Cellular uptake into MATE2-K-overexpressing HEK293 cells vs EV control cells (HPLC-MS/MS); details: for uptake ratio MATE2K (transporter-overexpressing cells over EV control cells): mean (±SD, N): 2.5 μM substrate, 1 min, 30 mM NH4Cl preincubation, HEK293
Sequence of MATE2-K (SLC47A2) (Q86VL8 1-566 isoform Q86VL8-3): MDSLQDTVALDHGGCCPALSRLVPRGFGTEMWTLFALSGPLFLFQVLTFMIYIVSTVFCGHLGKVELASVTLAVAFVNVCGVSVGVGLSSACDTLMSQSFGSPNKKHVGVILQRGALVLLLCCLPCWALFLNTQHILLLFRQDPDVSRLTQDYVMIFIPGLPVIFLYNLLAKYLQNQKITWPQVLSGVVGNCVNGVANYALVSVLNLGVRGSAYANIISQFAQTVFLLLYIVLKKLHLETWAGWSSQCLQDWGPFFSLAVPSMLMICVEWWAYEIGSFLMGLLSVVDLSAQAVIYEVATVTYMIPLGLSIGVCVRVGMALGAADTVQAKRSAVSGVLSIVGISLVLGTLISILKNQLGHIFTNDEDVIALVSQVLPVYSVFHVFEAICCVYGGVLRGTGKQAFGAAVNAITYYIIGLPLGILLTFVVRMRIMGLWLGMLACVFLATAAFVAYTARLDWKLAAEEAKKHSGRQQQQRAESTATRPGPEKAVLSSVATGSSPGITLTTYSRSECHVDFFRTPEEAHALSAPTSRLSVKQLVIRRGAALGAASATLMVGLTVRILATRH

OCT1 (SLC22A1) = biological target: T3, OCT1 (SLC22A1) (Homo sapiens, UniProt O15245); assay: Cellular uptake into OCT1-overexpressing HEK293 cells vs EV control cells (HPLC-MS/MS); details: for uptake ratio OCT1 (transporter-overexpressing cells over EV control cells): mean (±SD, N): 2 min, HEK293
T3 sequence (O15245 1-554): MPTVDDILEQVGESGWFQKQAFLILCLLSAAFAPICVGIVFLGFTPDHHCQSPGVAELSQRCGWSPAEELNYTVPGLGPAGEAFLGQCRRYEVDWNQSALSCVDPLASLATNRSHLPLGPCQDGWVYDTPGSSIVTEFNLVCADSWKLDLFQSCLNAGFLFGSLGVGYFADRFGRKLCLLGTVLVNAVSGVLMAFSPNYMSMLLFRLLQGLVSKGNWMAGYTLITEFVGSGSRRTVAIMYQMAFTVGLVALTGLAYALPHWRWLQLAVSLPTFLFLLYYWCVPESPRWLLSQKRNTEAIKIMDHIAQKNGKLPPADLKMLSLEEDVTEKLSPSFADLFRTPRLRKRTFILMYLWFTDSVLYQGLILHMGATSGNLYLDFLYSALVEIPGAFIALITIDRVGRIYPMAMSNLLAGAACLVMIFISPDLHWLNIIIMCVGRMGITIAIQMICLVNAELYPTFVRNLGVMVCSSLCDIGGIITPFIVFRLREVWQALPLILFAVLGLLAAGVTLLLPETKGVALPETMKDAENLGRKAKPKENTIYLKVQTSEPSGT

MATE1 (SLC47A1) = biological target: T4, MATE1 (SLC47A1) (Homo sapiens, UniProt Q96FL8); assay: Cellular uptake into MATE1-overexpressing HEK293 cells vs EV control cells (HPLC-MS/MS); details: for uptake ratio MATE1 (transporter-overexpressing cells over EV control cells): mean (±SD, N): 2.5 μM substrate, 1 min, 30 mM NH4Cl preincubation, HEK293
T4 sequence (Q96FL8 1-570): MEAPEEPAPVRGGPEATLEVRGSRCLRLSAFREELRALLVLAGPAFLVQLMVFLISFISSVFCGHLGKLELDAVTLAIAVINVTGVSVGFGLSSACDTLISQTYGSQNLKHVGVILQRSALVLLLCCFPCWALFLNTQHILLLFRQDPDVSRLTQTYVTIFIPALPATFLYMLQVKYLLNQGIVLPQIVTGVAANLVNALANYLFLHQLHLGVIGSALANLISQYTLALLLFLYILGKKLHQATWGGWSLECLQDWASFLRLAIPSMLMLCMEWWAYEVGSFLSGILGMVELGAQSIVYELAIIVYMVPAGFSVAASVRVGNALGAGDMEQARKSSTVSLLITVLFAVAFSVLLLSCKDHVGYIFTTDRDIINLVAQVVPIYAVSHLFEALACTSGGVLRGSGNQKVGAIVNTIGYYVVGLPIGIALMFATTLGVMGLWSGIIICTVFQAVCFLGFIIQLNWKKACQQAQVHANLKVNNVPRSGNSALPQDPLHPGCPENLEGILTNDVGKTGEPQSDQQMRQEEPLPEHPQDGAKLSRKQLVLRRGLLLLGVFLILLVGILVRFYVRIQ

OCT2 (SLC22A2) [2] = biological target: T2, OCT2 (SLC22A2); assay: in vitro; details: pH 7.4
[3] = OCT1, net uptake, Michaelis–Menten
[4] = MATE1, net uptake, Michaelis–Menten

Structure (SMILES)	K m (±SEM) (OCT2 (SLC22A2) [1])	v max (±SEM) (OCT2 (SLC22A2) [1])	uptake ratio MATE2K (transporter-overexpressing cells over EV control cells): mean (±SD, N) (MATE2-K (SLC47A2))	uptake ratio MATE1 (transporter-overexpressing cells over EV control cells): mean (±SD, N) (MATE1 (SLC47A1))	uptake ratio OCT3 (transporter-overexpressing cells over EV control cells): mean (±SD, N) (OCT3 (SLC22A3); 10 μM substrate)	uptake ratio OCT2 (transporter-overexpressing cells over EV control cells): mean (±SD, N) (OCT2 (SLC22A2) [1]; 10 μM substrate)	uptake ratio OCT1 (transporter-overexpressing cells over EV control cells): mean (±SD, N) (OCT1 (SLC22A1); 10 μM substrate)	further results
CC[C@H](C)[C@H](N)CO [(S)-(+)-isoleucinol]	116 (±59) μM	1303 (±287) pmol/mg protein/min	1.0 (0.1, 3)	1.1 (0.2, 3)	–	–	–	uptake ratio OCT3 (transporter-overexpressing cells over EV control cells): mean (±SD, N) (OCT3 (SLC22A3); 2.5 μM substrate (§)): 0.9 (0.1, 4); uptake ratio OCT2 (transporter-overexpressing cells over EV control cells): mean (±SD, N) (OCT2 (SLC22A2) [1]; 2.5 μM substrate (§)): 7.6 (1.5, 4) ^b; K m (±SEM) (OCT2 (SLC22A2) [1]; listed as isoleucinol): 116 µM; uptake ratio OCT1 (transporter-overexpressing cells over EV control cells): mean (±SD, N) (OCT1 (SLC22A1); 2.5 μM substrate (§)): 1.0 (0.1, 4)
CCCCCCN [hexylamine]	–	–	1.2 (0.6, 5)	0.8 (0.2, 4)	0.6 (0.2, 4) ^a	1.6 (0.4, 4)	1.8 (1.4, 5)	–
OCCNCCO [diethanolamine]	–	–	–	–	–	–	–	substrate activity at OCT3 (in words) (OCT3 (SLC22A3); uptake ratio ≥2 = notable transport): did not show any substrate activity; substrate activity at OCT2 (in words) (OCT2 (SLC22A2) [1]): did not show any substrate activity; substrate activity at MATE2-K (in words) (MATE2-K (SLC47A2)): did not show any substrate activity; substrate activity at OCT1 (in words) (OCT1 (SLC22A1)): did not show any substrate activity; substrate activity at MATE1 (in words) (MATE1 (SLC47A1)): did not show any substrate activity
CCCCCN [amylamine]	–	–	0.8 (0.3, 3)	0.5 (0.2, 3) ^a	0.9 (0.3, 4)	6.7 (3.2, 4) ^a	1.2 (0.5, 4)	–
CCCCCCCN [heptylamine]	–	–	1.4 (0.3, 4)	1.0 (0.3, 4)	1.85 (1.17, 6)	4.2 (3.1, 6) ^a	2.5 (1.9, 6)	–
CCC(C)(C)N [tert-amylamine]	–	–	1.0 (0.1, 3)	0.9 (0.2, 3)	–	–	–	uptake ratio OCT3 (transporter-overexpressing cells over EV control cells): mean (±SD, N) (OCT3 (SLC22A3); 2.5 μM substrate (§)): 0.8 (0.1, 3); uptake ratio OCT2 (transporter-overexpressing cells over EV control cells): mean (±SD, N) (OCT2 (SLC22A2) [1]; 2.5 μM substrate (§)): 4.7 (2.1, 3); uptake ratio OCT1 (transporter-overexpressing cells over EV control cells): mean (±SD, N) (OCT1 (SLC22A1); 2.5 μM substrate (§)): 1.0 (0.3, 3)
CCCC[C@H](N)CO [(S)-(+)-2-amino-1-hexanol]	39 (±12) μM	786 (±72) ^b pmol/mg protein/min	–	–	–	–	–	stereoselectivity OCT3 (uptake ratio of the more strongly transported enantiomer divided by that of the other) (OCT3 (SLC22A3); label = favoured enantiomer): 1.3-fold for (S); selectivity ratio at 2 min (OCT2 (SLC22A2) [2]): 1.3
CC(C)C[C@H](N)CO [(S)-(+)-leucinol]	–	–	–	–	–	–	–	selectivity ratio at 2 min (OCT2 (SLC22A2) [2]): 1.2
NCCO [ethanolamine^13C2, ethanolamine-^13C2]	–	–	1.2 (0.4, 4)	1.2 (0.4, 4)	1.4 (0.5, 4)	0.4 (0.2, 4) ^b	0.6 (0.3, 4)	less uptake in OCT2-transfected cells compared to EV control cells (OCT2 (SLC22A2) [1]; 10 μM, p = 0.009): 64%; uptake in OCT2-overexpressing cells as part of the uptake observed in EV control cells (OCT2 (SLC22A2) [1]; discussion): two-thirds; lower uptake in OCT1-transfected cells compared to EV control cells (OCT1 (SLC22A1); 10 μM): 38%; uptake in OCT1-overexpressing cells as part of the uptake observed in EV control cells (OCT1 (SLC22A1); discussion): approximately one-third
CC(N)CCCC(C)(C)O (stereo not shown) [heptaminol]	1089 (±213) μM	9730 (±1210) pmol/mg protein/min	1.0 (0.2, 3)	6.6 (1.3, 3) ^a	–	–	–	uptake ratio OCT3 (transporter-overexpressing cells over EV control cells): mean (±SD, N) (OCT3 (SLC22A3); 2.5 μM substrate (§)): 1.1 (0.29, 4); uptake ratio OCT2 (transporter-overexpressing cells over EV control cells): mean (±SD, N) (OCT2 (SLC22A2) [1]; 2.5 μM substrate (§)): 8.7 (5.0, 3); uptake ratio OCT1 (transporter-overexpressing cells over EV control cells): mean (±SD, N) (OCT1 (SLC22A1); 2.5 μM substrate (§)): 11.3 (4.6, 3); K m (±SEM) (OCT1 (SLC22A1); [3]): 241 (±68) μM; v max (±SEM) (OCT1 (SLC22A1); [3]): 1480 (±174) pmol/mg protein/min; K m (±SEM) (MATE1 (SLC47A1); [4]): 154 (±18) μM; v max (±SEM) (MATE1 (SLC47A1); [4]): 8061 (±283) pmol/mg protein/min; CLint of MATE1 higher than that of OCT1 (MATE1 (SLC47A1); MATE1 vs OCT1): 6.0 fold; CLint of MATE1 higher than that of OCT2 (MATE1 (SLC47A1); MATE1 vs OCT2): 3.7 fold
NCC(O)CN [1,3-diamino-2-propanol]	65 (±91) μM	110 (±56) pmol/mg protein/min	0.8 (0.1, 3)	1.1 (0.1, 3)	1.6 (0.3, 3)	3.7 (2.4, 3)	1.4 (0.6, 5)	–
